Results from US20150320820A1, “MICROBIOCIDES FROM PLANT EXTRACTS FOR PROTECTION AGAINST HSV 2 INFECTION” (Council of Scientific and Industrial Research, priority 2012, published 2015).
Values after ≈ are worked out from the molar mass of the structure shown.

How the values were obtained:
[1] = test system: HSV-2; assay: Anti-HSV-2 plaque reduction assay in Vero cells; assay type: cell-based, Herpes Simplex Virus Type-2; conditions: HSV-2 plaque assay
Protocol: 13 wild plant species belonging to eight families Convolvulaceae (3 species), Polygonaceae (2 species), Anacardiaceae (1 species), Combretaceae (2 species), Lauraceae (1 species), Asteraceae (2 species), Zingiberaceae (1 species) and Rhamnaceae (1 species) were selected.
(§1) The methanol extracts of the plant parts and their fractions separated as less polar, medium polar and polar fractions using column chromatography or solvent separation/partitioning, were assessed for toxicity and subsequently for inhibition of HSV-2 in Vero cells by plaque reduction assay. These extracts and fractions were also tested for anti-HIV-1 activity and inhibition of other sexually transmitted pathogens like C. albicans, N gonorrhoea and H. ducreyi.

[2] = test system: Vero cells; assay: Cytotoxicity in Vero cells; assay type: cell-based; conditions: cytotoxic concentration
Protocol: as §1
(§2) According to Table 3, the extracts of plant species selected from the group consisting of Polygonum glabrum, Rhus mysorensis, Terminalia paniculata, Cuscuta reflexa, Terminalia crenulata, Cassytha filiformis, Scutia myrtina, were studied for cytotoxicity in Vero cells.

[3] = Cytotoxicity in Vero cells; assay type: cell-based; conditions: African green monkey, cytotoxic concentration
Protocol: as §1, §2

[4] = test system: Haemophilus duceryi ATCC 33921; assay: Anti-Ducreyi activity by agar disc diffusion; assay type: cell-based, Haemophilus ducreyi; conditions: H. duceryi ATCC 33921 (Tetracycline Sensitive); 10 μg disc, positive control
Protocol: A tetracycline sensitive strain of H. duceryi ([…]) was cultured on Chanchroid agar (GC agar supplemented with 2% haemoglobin, 5% FBS and 1% isovitalex and incubated at 33° C. for 72 hrs. in a candle jar with 45% moisture. The strain was identified by colony characteristics, Gram stain, growth characteristics (requirement for X and V factors) and Tween 80 hydrolysis as described earlier, and stored at −70° C. in brain heart infusion broth containing 20% glycerol.
The inoculum of each strain was prepared following the CLSI guidelines for bacteria and yeasts. The 0.5 McFarland standard inoculums (approx. 1.5×10^8 CFU/ml) of N. gonorrhoeae, H. duceryi and C. albicans were prepared from freshly grown cultures, in sterile 0.85% normal saline and mixed thoroughly. […]
The primary screening of plant extracts for activity against the three microorganisms included in the study was carried out by Kirby Baur agar disc diffusion method as described earlier. […] The discs (extract/fraction and controls) were placed on the plates previously inoculated with the respective bacterial/fungal culture, incubated as mentioned above and the zone of inhibition was recorded. […] The minimum inhibitory and minimum cidal concentrations of the extracts showing inhibition were determined using following methods.

[5] = Human alphaherpesvirus 2, Vero cells

Molecule	IC50 [1, 5]	IC80 [1, 5]	TI ([1]; Therapeutic Index)	CC80 [2]	CC50 [3]	zone of inhibition [4]
Nc1nc2c(ncn2COCCO)c(=O)[nH]1 [Acyclovir]	5.6 µg/mL (≈ 24.9 µM)	2.81 µg/mL (≈ 12.5 µM)	151	378 µg/mL (≈ 1680 µM)	806 µg/mL (≈ 3580 µM)	
penicillin						36 mm
